Laboratory results from patent publication US11980631B2, “β-lactamase inhibitors” (priority 2017, dated 2024).

Legend:
L2 = L2 (Stenotrophomonas maltophilia (Pseudomonas maltophilia) (Xanthomonas maltophilia), UniProt P96465); assay: Inhibition of purified L2, fluorogenic substrate FC5 as reporter; details: IC50, purified L2, FC5 substrate
Experimental: Steady state kinetic data were analysed by curve fitting to the Michaeilis-Menten equation using Prism software.

[1] = tested on: L1 β-lactamase production in S. maltophilia K279a; assay: L1 β-lactamase induction by β-lactamase inhibitors (meropenem hydrolysis in cell extracts); assay type: cell-based; details: 50 μg.mL^−1 inducer
Experimental: L1 activity was measured from the cell extracts in a 96-well plate reader by determining meropenem hydrolysis (100 μM) at λ=300 nm. Protein concentration was determined by using BioRad protein assay dye reagent. Specific activity was calculated by using the extinction coefficient of 9600 AU/M/cm and a pathlength correction for the microplate ([…]). Data presented are means +/−SEM, n=3.
Cultures were grown overnight using nutrient broth and used to inoculate (1:100 dilution) 10 ml nutrient broth cultures in sealed 30 ml universal bottles. Cultures were incubated for 2 h with shaking at 37° C. before test inducers were added, or not, and culture was continued for 2 h. Cells were pelleted by centrifugation (4,000×g, 10 min) and pellets treated with 100 μL of BugBuster (Ambion), pipetting up and down a few times before rocking for 10 min at room temperature. […] Protein concentration was determined using the BioRad protein assay reagent concentrate according to the manufacturer's instructions. L1 β-lactamase activity was determined using an Omega Fluostar (BMG Biotech) using meropenem as substrate in half-area 96 well UV-translucent plates (Greiner UV-Star. Bio-one) with 200 μl of 100 μM meropenem solution in assay buffer (60 mM Na2HPO4.7H2O pH 7.0, 40 mM NaH2PO4.H2O, 10 mM KCI, 1 mM MgSO4.7H2O, 100 μM ZnCl2) plus 10 μL of cell extract. […]

S. maltophilia = assay: microbe, parasite or virus in culture; assay type: cell-based, Stenotrophomonas maltophilia; details: inhibitor at 2 mg/L
Experimental: S. maltophilia clinical isolates were K279a, a well characterised isolate from Bristol, UK, or were obtained from the SENTRY antimicrobial resistance survey, as previously reported. […] All growth media were from Oxoid. Chemicals were from Sigma, unless otherwise stated.
Susceptibility to β-lactams in bacterial isolates was determined using the CLSI microtitre minimum inhibitory concentration (MIC) methodology with Muller-Hinton Broth using 96 well plates (Corning, Costar). The MIC was determined as the lowest concentration of β-lactam required to entirely suppress growth. Inhibitor concentrations were kept constant at 2 mg/L or 10 mg/L in all assays. Interpretation of susceptibility/resistance was by reference to CLSI clinical breakpoints for S. maltophilia (ceftazidime) and for Pseudomonas aeruginosa (for aztreonam and meropenem, since no S. maltophilia breakpoints are available).

Sequence of L2 (P96465 36-303 limits assumed): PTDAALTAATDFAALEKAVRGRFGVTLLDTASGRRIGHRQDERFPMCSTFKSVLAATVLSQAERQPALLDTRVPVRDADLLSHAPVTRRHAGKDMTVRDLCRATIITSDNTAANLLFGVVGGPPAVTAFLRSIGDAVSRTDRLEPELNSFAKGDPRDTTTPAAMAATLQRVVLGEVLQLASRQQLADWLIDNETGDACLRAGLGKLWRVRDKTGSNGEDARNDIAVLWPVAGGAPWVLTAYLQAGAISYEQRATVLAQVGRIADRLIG

## NC(=O)[C@@H]1CC[C@@H]2CN1C(=O)N2OS(=O)(=O)O [Avibactam]
L2
  IC50: 14.4 nM
[1]
  induction of L1 production (in words): neither avibactam nor 2 induces L1 to any measurable extent
S. maltophilia; CI-20
  MIC of aztreonam in the presence of the β-lactamase inhibitor: 2 µg/mL
  MIC of ceftazidime in the presence of the β-lactamase inhibitor: 4 µg/mL
  MIC of meropenem in the presence of the β-lactamase inhibitor: 64 µg/mL
S. maltophilia; CI-29
  MIC of aztreonam in the presence of the β-lactamase inhibitor: 1 µg/mL
  MIC of ceftazidime in the presence of the β-lactamase inhibitor: 1 µg/mL
  MIC of meropenem in the presence of the β-lactamase inhibitor: 32 µg/mL
S. maltophilia; CI-31
  MIC of aztreonam in the presence of the β-lactamase inhibitor: ≤ 4 µg/mL
  MIC of ceftazidime in the presence of the β-lactamase inhibitor: 128 µg/mL
  MIC of meropenem in the presence of the β-lactamase inhibitor: 256 µg/mL
S. maltophilia; CI-31, listed as AVI
  MIC of aztreonam in the presence of the β-lactamase inhibitor: 4 µg/mL
S. maltophilia; K279a
  MIC of aztreonam in the presence of the β-lactamase inhibitor: 1 µg/mL
  MIC of ceftazidime in the presence of the β-lactamase inhibitor: 1 µg/mL
  MIC of meropenem in the presence of the β-lactamase inhibitor: 16 µg/mL
S. maltophilia; K AMI 32
  MIC of aztreonam in the presence of the β-lactamase inhibitor: 0.5 µg/mL
  MIC of ceftazidime in the presence of the β-lactamase inhibitor: 0.5 µg/mL
  MIC of meropenem in the presence of the β-lactamase inhibitor: 16 µg/mL
S. maltophilia; K CAZ 10
  MIC of aztreonam in the presence of the β-lactamase inhibitor: 1 µg/mL
  MIC of ceftazidime in the presence of the β-lactamase inhibitor: 8 µg/mL
  MIC of meropenem in the presence of the β-lactamase inhibitor: 64 µg/mL
S. maltophilia; K MOX 8
  MIC of aztreonam in the presence of the β-lactamase inhibitor: 0.5 µg/mL
  MIC of ceftazidime in the presence of the β-lactamase inhibitor: 0.5 µg/mL
  MIC of meropenem in the presence of the β-lactamase inhibitor: 16 µg/mL
S. maltophilia; β-lactam and strain named in the value
  ability to potentiate β-lactams / reverse resistance (in words): reduce ceftazidime MICs against K279a
